From PMC9420858, “Synthesis, bioactivity, and molecular docking of novel arylpiperazine derivatives as potential AR antagonists” (Frontiers in Chemistry, 2022) come the findings set out here.

Series [1] addresses T1, AR-LBD (GST) (Rattus norvegicus, UniProt P15207).
T1 sequence (P15207 651-882 limits assumed): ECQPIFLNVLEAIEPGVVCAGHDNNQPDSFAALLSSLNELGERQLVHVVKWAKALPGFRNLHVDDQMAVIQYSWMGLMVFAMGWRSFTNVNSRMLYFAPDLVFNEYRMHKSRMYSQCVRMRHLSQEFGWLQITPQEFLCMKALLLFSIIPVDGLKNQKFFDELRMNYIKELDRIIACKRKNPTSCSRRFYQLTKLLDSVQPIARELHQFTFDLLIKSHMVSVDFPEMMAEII
As to the kind of experiment: AR binding, fluorescence polarization (PolarScreen AR Competitor Assay). For orientation: Fluorescence polarisation rises when a labelled molecule tumbles more slowly, as on binding a larger partner.
Experimental: Briefly, titrations are performed between the tested compounds and the preformed Fluormone™AL Green and the AR-LBD (GST) complex. The tested mixture was allowed to equilibrate at room temperature in 384-well plates for 4 h. […] Data of the ligand binding assays were analyzed using Prism software (GraphPad Software, Inc.).

The subject of series [2] is PC-3 cells. Nature of the series: Antiproliferative activity, CCK-8 assay, PC-3 cells. It is filed as cell-based. The settings on record: PC-3 human prostate cancer cell line, 24 h, mean ± SD of three experiments. How it is done: (§1) The antiproliferative activity of compounds 5–26 was assessed using the CCK-8 assay ([Chen et al., 2016]; [Chen et al., 2017]; [Chen et al., 2018]; [Han et al., 2020]; [Guo et al., 2021]; [Hu et al., 2022]; [Zhou et al., 2022]). The 96-well plates (1×10^5 cells/mL) were seeded with cells in a medium, the plates were cultured at 37 °C for 24 h, then different concentrations of tested drugs were added, and the plates were cultured for 24 h. After 24 h, 10 μL of CCK-8 solution (5 mg/ml) was added to the wells, and the cells were cultured for 1 h at 37°C. Cell growth inhibition was performed by measuring the absorbance at 450 nm using a microplate reader, and the percentage of cell growth inhibition was then calculated for each tested drug.
(§2) Antiproliferative activity of the novel arylpiperazine derivatives was firstly evaluated against LNCaP cells using the CCK-8 assay. […] Naftopidil and finasteride ([Banday et al., 2014]) were used as control compounds. RWPE-1 cells were used to compare their toxicity. To clarify whether the antiproliferative activity was related to any interference with AR function, the AR antagonist effect was evaluated using the luciferase reporter gene assay. […] The AR luciferase assays were conducted under the co-treatment of 1 nM AR agonist R1881, and the antagonistic activity was measured by inhibiting the R1881-induced luciferase expression.

The test system of series [3] is RWPE-1 cells. As to the kind of experiment: Cytotoxicity, CCK-8 assay, RWPE-1 normal prostate epithelial cells. It is filed as cell-based. To be noted: RWPE-1 normal non-cancer human prostate epithelial cell line, 24 h, mean ± SD of three experiments. How it is done:
as §1, §2
(In general: Formazan colour is commonly taken as a measure of viable cells.)

For series [4], the system named is LNCaP cells. Nature of the series: Antiproliferative activity, CCK-8 assay, LNCaP cells. The settings on record: Homo sapiens, LNCaP, 24 h, LNCaP human prostate cancer cell line, mean ± SD of three experiments. In kind it is cell-based. How it is done:
as §1, §2

Where [5] appears, read: AR binding affinity IC50, fluorescence polarization.

Structures are written as SMILES. Like-named read-outs stand apart in the source and are kept apart here.

Broadly, the IC50 is the point on the concentration scale where inhibition reaches its midpoint. By melting point is commonly meant the temperature, or range, at which the solid turns liquid. `FC(F)(F)c1ccc(N2CCN(CCc3ccc(COc4ccc5c(c4)CCC5)cc3)CC2)cc1` [Compound 26, 1-(4-((2,3-dihydro-1H-inden-5-yloxy)methyl)phenethyl)-4-(4-(trifluoromethyl)phenyl)piperazine] returned a melting point of 135.3 to 136.5 °C. This molecule showed a concentration for half-maximal inhibition (IC50) in series [1] of 1.43 ± 0.18 µM. This molecule also gave a concentration for half-maximal inhibition (IC50) in series [1] (setting [5]) of less than 2 µM. In series [2], the half-maximal inhibitory concentration (IC50) is greater than 50 µM. Moreover, the IC50 in series [3] is greater than 50 µM.

`COc1ccccc1N1CCN(CC(O)COc2cccc3ccccc23)CC1` (stereo not drawn) [Naftopidil, reference compound]: the concentration for half-maximal inhibition (IC50) in series [2] was 42.1 ± 0.79 µM; in series [3], greater than 50 µM; in series [4], 22.4 ± 0.61 µM.

The molecule `c1ccc(N2CCN(CCc3ccc(COc4ccc5c(c4)CCC5)cc3)CC2)nc1` [Compound 7, 1-(4-((2,3-dihydro-1H-inden-5-yloxy)methyl)phenethyl)-4-(pyridin-2-yl)piperazine] had a melting point of 90.1 to 91.8 °C. Moreover, the IC50 in series [2] is greater than 50 µM. In series [3], this molecule displayed an IC50 of 7.68 ± 0.15 µM. The 50% inhibitory concentration (IC50) in series [4] worked out at 15.29 ± 0.13 µM.

For `Clc1ccc(N2CCN(CCc3ccc(COc4ccc5c(c4)CCC5)cc3)CC2)cc1` [Compound 21, 1-(4-((2,3-dihydro-1H-inden-5-yloxy)methyl)phenethyl)-4-(4-chlorophenyl)piperazine], the melting point was 117.2 to 118.6 °C. In series [1], this molecule registered a 50% inhibitory concentration (IC50) of 0.65 ± 0.08 µM. The molecule also returned an IC50 in series [1] (setting [5]) of less than 2 µM. In series [2], this molecule gave an IC50 greater than 50 µM. In addition, the 50% inhibitory concentration (IC50) in series [3] is greater than 50 µM.

`Cc1ccc(C)c(N2CCN(CCc3ccc(COc4ccc5c(c4)CCC5)cc3)CC2)c1` [Compound 11, 1-(4-((2,3-dihydro-1H-inden-5-yloxy)methyl)phenethyl)-4-(2,5-dimethylphenyl)piperazine] gave a melting point of 70.4 to 71.5 °C. Moreover, half-maximal inhibition in series [2] (IC50) was put at 4.31 ± 0.13 µM. This molecule also registered a half-maximal inhibitory concentration (IC50) in series [3] greater than 50 µM. The molecule also showed an IC50 in series [4] greater than 50 µM.

The molecule `Cc1ccc(N2CCN(CCc3ccc(COc4ccc5c(c4)CCC5)cc3)CC2)cc1` [Compound 10, 1-(4-((2,3-dihydro-1H-inden-5-yloxy)methyl)phenethyl)-4-p-tolylpiperazine] displayed a melting point of 105.1 to 106.3 °C. For the same molecule, in series [2], the half-maximal inhibitory concentration (IC50) is 17.2 ± 0.21 µM. For the same molecule, the IC50 in series [3] is 9.24 ± 0.23 µM. The midpoint of inhibition in series [4], the IC50, lay at 20.9 ± 0.22 µM.

Take `FC(F)(F)c1ccccc1N1CCN(CCc2ccc(COc3ccc4c(c3)CCC4)cc2)CC1` [Compound 25, 1-(4-((2,3-dihydro-1H-inden-5-yloxy)methyl)phenethyl)-4-(2-(trifluoromethyl)phenyl)piperazine]: the melting point was 53.6 to 54.8 °C. The same molecule registered an IC50 in series [1] of 1.22 ± 0.15 µM. The molecule further yielded a half-maximal inhibitory concentration (IC50) in series [1] (setting [5]) of less than 2 µM. Further, the IC50 in series [2] is greater than 50 µM. This molecule also registered a 50% inhibitory concentration (IC50) in series [3] greater than 50 µM.

Regarding `Brc1ccc(N2CCN(CCc3ccc(COc4ccc5c(c4)CCC5)cc3)CC2)cc1` [Compound 24, 1-(4-((2,3-dihydro-1H-inden-5-yloxy)methyl)phenethyl)-4-(4-bromophenyl)piperazine], the melting point lay within 114.1 to 115.2 °C. This molecule also showed a concentration for half-maximal inhibition (IC50) in series [2] of 2.31 ± 0.23 µM. In series [3], this molecule gave an IC50 greater than 50 µM. In series [4], this molecule registered a concentration for half-maximal inhibition (IC50) of 14.7 ± 0.15 µM.

In the case of `COc1cccc(N2CCN(CCc3ccc(COc4ccc5c(c4)CCC5)cc3)CC2)c1` [Compound 14, 1-(4-((2,3-dihydro-1H-inden-5-yloxy)methyl)phenethyl)-4-(3-methoxyphenyl)piperazine], the melting point lay in the range of 74.2 to 75.4 °C. Also, the IC50 in series [1] came out at 2.62 ± 0.25 µM. Also, the IC50 in series [2] is 0.87 ± 0.12 µM. The same molecule came in with an IC50 in series [3] greater than 50 µM.

`Cc1ccc(Cl)cc1N1CCN(CCc2ccc(COc3ccc4c(c3)CCC4)cc2)CC1` [Compound 23, 1-(4-((2,3-dihydro-1H-inden-5-yloxy)methyl)phenethyl)-4-(5-chloro-2-methylphenyl)piperazine] had a melting point of 87.4 to 88.3 °C. In addition, half-maximal inhibition in series [2] (IC50) was put at 0.95 ± 0.14 µM. The same molecule registered an IC50 in series [3] greater than 50 µM. Moreover, the 50% inhibitory concentration (IC50) in series [4] was found to be 12.6 ± 0.22 µM.

In turn, `Fc1ccc(N2CCN(CCc3ccc(COc4ccc5c(c4)CCC5)cc3)CC2)c(F)c1` [Compound 18, 1-(4-((2,3-dihydro-1H-inden-5-yloxy)methyl)phenethyl)-4-(2,4-difluorophenyl)piperazine] displayed a melting point of 86.1 to 86.5 °C. Moreover, the IC50 in series [2] is 1.92 ± 0.24 µM. In series [3], this molecule displayed an IC50 greater than 50 µM. In series [4], this molecule displayed an IC50 of 10.7 ± 0.14 µM.

Turning to `c1ccc(N2CCN(CCc3ccc(COc4ccc5c(c4)CCC5)cc3)CC2)cc1` [Compound 5, 1-(4-((2,3-dihydro-1H-inden-5-yloxy)methyl)phenethyl)-4-phenylpiperazine], the melting point is 82.2 to 83.5 °C. Also, the IC50 in series [1] is 1.46 ± 0.24 µM. The molecule also registered a concentration for half-maximal inhibition (IC50) in series [1] (setting [5]) of less than 2 µM. The concentration for half-maximal inhibition (IC50) in series [2] was greater than 50 µM. In addition, the half-inhibitory concentration (IC50) in series [3] was greater than 50 µM.

`Cc1cccc(N2CCN(CCc3ccc(COc4ccc5c(c4)CCC5)cc3)CC2)c1` [Compound 9, 1-(4-((2,3-dihydro-1H-inden-5-yloxy)methyl)phenethyl)-4-m-tolylpiperazine]: the melting point lay within 61.2 to 62.7 °C. This molecule also displayed a half-maximal inhibitory concentration (IC50) in series [2] greater than 50 µM. In addition, half-maximal inhibition in series [3] (IC50) was put at 11 ± 0.16 µM. For the same molecule, in series [4], half-maximal inhibition (IC50) required 42.68 ± 0.14 µM.

`Fc1ccc(N2CCN(CCc3ccc(COc4ccc5c(c4)CCC5)cc3)CC2)cc1` [Compound 17, 1-(4-((2,3-dihydro-1H-inden-5-yloxy)methyl)phenethyl)-4-(4-fluorophenyl)piperazine] gave a melting point of 79.8 to 80.5 °C. This molecule also displayed a concentration for half-maximal inhibition (IC50) in series [2] of 1.45 ± 0.17 µM. The IC50 in series [3] is greater than 50 µM. In addition, 17.92 ± 0.13 µM corresponded to half-maximal inhibition in series [4] (IC50).

`c1ccc(CN2CCN(CCc3ccc(COc4ccc5c(c4)CCC5)cc3)CC2)cc1` [Compound 6, 1-(4-((2,3-dihydro-1H-inden-5-yloxy)methyl)phenethyl)-4-benzylpiperazine]: the melting point lay within 71.1 to 73.3 °C. Besides, the half-maximal inhibitory concentration (IC50) in series [2] is 11.3 ± 0.15 µM. In series [3], this molecule registered an IC50 of 11.6 ± 0.21 µM. The concentration for half-maximal inhibition (IC50) in series [4] was 23.45 ± 0.12 µM.

`Fc1ccccc1N1CCN(CCc2ccc(COc3ccc4c(c3)CCC4)cc2)CC1` [Compound 16, 1-(4-((2,3-dihydro-1H-inden-5-yloxy)methyl)phenethyl)-4-(2-fluorophenyl)piperazine] displayed a melting point of 64.2 to 65.3 °C. Further, in series [2], the 50% inhibitory concentration (IC50) was greater than 50 µM. The half-inhibitory concentration (IC50) in series [3] is greater than 50 µM. Also, the IC50 in series [4] stood at 18.56 ± 0.17 µM.

`CCOc1ccccc1N1CCN(CCc2ccc(COc3ccc4c(c3)CCC4)cc2)CC1` [Compound 13, 1-(4-((2,3-dihydro-1H-inden-5-yloxy)methyl)phenethyl)-4-(2-ethoxyphenyl)piperazine] returned a melting point of 65.2 to 66.1 °C. The IC50 in series [2] is greater than 50 µM. In series [3], this molecule had an IC50 greater than 50 µM. Besides, the IC50 in series [4] was greater than 50 µM.

`Clc1cccc(N2CCN(CCc3ccc(COc4ccc5c(c4)CCC5)cc3)CC2)c1` [Compound 20, 1-(4-((2,3-dihydro-1H-inden-5-yloxy)methyl)phenethyl)-4-(3-chlorophenyl)piperazine]: the melting point was in the range of 83.2 to 84.3 °C. Also, the IC50 in series [2] turned out to be 1.56 ± 0.14 µM. The same molecule had a half-inhibitory concentration (IC50) in series [3] greater than 50 µM. The molecule further returned an IC50 in series [4] of 16.98 ± 0.15 µM.
